Patent publication US20250042884A1, “3-ARYLOXYL-3-FIVE-MEMBERED HETEROARYL PROPYLAMINE COMPOUND AND USE THEREOF” (Shanghai Leado Pharmatech Co. Ltd., priority 2018, published 2025)

Assays:
[1] = system: Sprague-Dawley rats; assay: Rat hot plate pain model (acute pain); assay type: in vivo; details: 30 mg/kg intraperitoneal, hydrochloride salt
Description: Sprague-Dawley male, mature and unmated rats were placed at hot and cold plate (product model: PE34, US IITC) with constant 53±0.1° C. Mice with painful response such as licking claw, shaking claw or slightly jumping within 10-30 s were selected, and mice which evaded and jumped were abandoned. […] The test compound was freshly prepared on the day of administration. 0.9% NaCl physiological saline solution was prepared as solvent for later use. Appropriate amount of test compound was added into required volume of physiological saline and fully suspended, and the concentration of prepared drug was 1 mg/ml. […] After administration, the latency of heat pain was measured at 0.5 h, 1 h and 2 h after administration. In order to prevent animals from being scalded on the hot plate, the maximum incubation time was set to 30 s. Maximum possible effect (MPE) % was used to evaluate analgesic effect of each compound, i.e., MPE %=[(Post drug latency−baseline latency)/(30−baseline latency)]×100. MPE % at different time points was recorded.

[2] = target: TRPA1 (Mus musculus (Mouse), UniProt Q8BLA8); assay: Manual patch clamp test of TRPA1 inhibitory activity; assay type: cell-based; details: FIG. 2
Description: The TRPA1 inhibitory activity of compound I-1 was evaluated by manual patch clamp test method.

[3] = system: C57BL/6 mice; assay: Mice formalin pain model (acute and inflammatory pain); assay type: in vivo; details: for Licking claw time (s) in phase II (10-60 min): hydrochloride salt, blank vehicle 349.55 ± 43.09
Excerpt: 150 C57BL/6 mice (male, 9-week aged) were randomly divided into 15 groups, (each group had 10 mice) for the analgesic activity test of 3 compounds in the mice formalin pain model respectively: the compound I-1 group (compound I-1 prepared in Example 2 whose hydrochloride salt was used in the experiment), the S-duloxetine group (its hydrochloride salt was used in the experiment) and the compound C1 group (the compound C1 prepared in Comparative Example 1, whose hydrochloride salt was used in the experiment). Before the start of experiments, the mice were allowed to adapt to the experimental environment for 72 h with free feeding and drinking water. The test drugs were administrated by intraperitoneal injection at a dosage as follows:
Compound I-1 group: blank vehicle (blank saline control), 0.1 mg/kg, 0.5 mg/kg, 1 mg/kg, 5 mg/kg and 10 mg/kg;
S-duloxetine group: blank vehicle (blank saline control), 1 mg/kg, 5 mg/kg, 10 mg/kg and 20 mg/kg;
Compound C1 group: blank vehicle (blank saline control), 0.1 mg/kg, 0.5 mg/kg, 1 mg/kg, 5 mg/kg and 10 mg/kg.
After administration, the mice were placed in a transparent, ventilated plexiglass cylinder for 1 h, and then 20 μl of 4% formalin solution was injected into the left hind plantar of mice of each group by microinjector, claw pain response in mice were real-time recorded by a mini-camera. The time length of licking left claw were used as an indicator of pain response, licking time in 0-10 min (phase I) and 10-60 min (phase II) were observed and recorded, and the statistical analysis was conducted. The half effective dose (ED50) of 3 compounds were calculated: ED50 referred to the dose of the drug which decreased licking time by half as compared with the blank control group. The smaller the ED50 value was, the lower the effective analgesic dose of the compound was and the better the analgesic effect was.

Sequence of TRPA1 (Q8BLA8 whole entry): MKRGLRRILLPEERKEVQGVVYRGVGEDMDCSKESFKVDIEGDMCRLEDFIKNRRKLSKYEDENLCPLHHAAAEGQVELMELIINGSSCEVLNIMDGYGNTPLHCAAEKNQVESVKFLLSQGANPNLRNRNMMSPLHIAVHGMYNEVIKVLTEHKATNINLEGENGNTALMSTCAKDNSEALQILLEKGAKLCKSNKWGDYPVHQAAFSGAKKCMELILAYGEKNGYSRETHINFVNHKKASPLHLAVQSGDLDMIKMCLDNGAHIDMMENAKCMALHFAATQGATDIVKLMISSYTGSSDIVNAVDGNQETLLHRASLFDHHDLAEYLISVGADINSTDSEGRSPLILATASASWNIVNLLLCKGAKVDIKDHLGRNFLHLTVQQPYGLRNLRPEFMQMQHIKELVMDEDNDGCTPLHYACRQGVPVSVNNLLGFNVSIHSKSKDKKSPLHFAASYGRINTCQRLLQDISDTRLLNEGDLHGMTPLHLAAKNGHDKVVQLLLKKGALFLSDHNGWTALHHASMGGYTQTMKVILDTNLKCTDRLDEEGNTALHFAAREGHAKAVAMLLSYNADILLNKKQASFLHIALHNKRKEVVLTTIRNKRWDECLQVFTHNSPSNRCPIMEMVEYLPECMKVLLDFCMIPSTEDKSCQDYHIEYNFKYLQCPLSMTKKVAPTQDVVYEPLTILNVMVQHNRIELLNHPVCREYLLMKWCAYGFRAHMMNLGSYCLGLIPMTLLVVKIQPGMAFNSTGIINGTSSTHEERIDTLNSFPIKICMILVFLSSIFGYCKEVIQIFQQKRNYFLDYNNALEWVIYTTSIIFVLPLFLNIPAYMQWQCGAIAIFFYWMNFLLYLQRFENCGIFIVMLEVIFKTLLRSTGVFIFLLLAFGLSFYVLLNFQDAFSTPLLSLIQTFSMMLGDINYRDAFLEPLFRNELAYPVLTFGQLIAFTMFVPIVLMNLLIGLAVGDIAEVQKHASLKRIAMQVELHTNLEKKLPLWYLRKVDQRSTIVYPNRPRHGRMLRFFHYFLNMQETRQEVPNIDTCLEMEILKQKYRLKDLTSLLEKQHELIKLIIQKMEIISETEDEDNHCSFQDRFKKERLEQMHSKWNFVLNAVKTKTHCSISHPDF

Question: What does the source list for `CNCC[C@@H](Oc1cccc2ccoc12)c1cccs1` [Compound I-1, (R)-3-(benzofuran-7-yloxy)-N-methyl-3-(thiophen-2-yl)propyl-1-amine]?
Answer: MPE % ([1]; 0.5 h after administration): 14.51 ± 6.87%; MPE % ([1]; 1 h after administration): 38.03 ± 5.66%; MPE % ([1]; 2 h after administration): 31.92 ± 6.79%; IC50 [2]: 420 nM; Licking claw time (s) in phase II (10-60 min) ([3]; 0.1 mg/kg intraperitoneal): 321.55 ± 47.75 s; decrease of licking time in phase II (10-60 min) compared with the blank vehicle ([3]; 0.5 mg/kg intraperitoneal): more than 50%; Licking claw time (s) in phase II (10-60 min) ([3]; 0.5 mg/kg intraperitoneal): 161.25 ± 30.83 s; Licking claw time (s) in phase II (10-60 min) ([3]; 1 mg/kg intraperitoneal): 131.28 ± 23.99 s; Licking claw time (s) in phase II (10-60 min) ([3]; 5 mg/kg intraperitoneal): 87.85 ± 25.15 s; Licking claw time (s) in phase II (10-60 min) ([3]; 10 mg/kg intraperitoneal): 99.08 ± 19.73 s; ED50 times stronger than S-duloxetine ([3]; phase II, mice formalin model): 30.8 times; ED50 times stronger than compound C1 ([3]; phase II, mice formalin model): 8.5 times
